Measured values taken from ChEMBL document CHEMBL5260810, “Inhibition of bromodomain-containing protein 9 for the prevention of epigenetically-defined drug resistance” (Bioorg Med Chem Lett, 2017).

Legend:
[1] = test system: GA-10; experiment: Cytotoxicity against human GA-10 cells measured after 8 days; type: functional, cell-based; conditions: GA-10, 192 h
[2] = Cytotoxicity against human HS-Sultan cells measured after 8 days; type: functional, cell-based; conditions: 192 h
[3] = Cytotoxicity against human NCI-H2803 cells measured after 8 days; type: functional, cell-based; conditions: NCI-H2803, 192 h
[4] = test system: NCI-H727; experiment: Cytotoxicity against human NCI-H727 cells measured after 8 days; type: functional, cell-based; conditions: NCI-H727, 192 h
[5] = test system: CAMA-1; experiment: Cytotoxicity against human CAMA-1 cells measured after 8 days; type: functional, cell-based; conditions: CAMA-1, 192 h
[6] = test system: HCC1143; experiment: Cytotoxicity against human HCC1143 cells measured after 8 days; type: functional, cell-based; conditions: HCC1143, 192 h
[7] = Cytotoxicity against human OVCA429 cells measured after 8 days; type: functional, cell-based; conditions: OVCA429, 192 h
[8] = test system: CX-1; experiment: Cytotoxicity against human CX-1 cells measured after 8 days; type: functional, cell-based; conditions: CX-1, 192 h
[9] = test system: LoVo; experiment: Cytotoxicity against human LoVo cells measured after 8 days; type: functional, cell-based; conditions: 192 h
[10] = test system: ABC-1; experiment: Cytotoxicity against human ABC-1 cells measured after 8 days; type: functional, cell-based; conditions: ABC-1, 192 h
[11] = molecular target: T1, ATPase family AAA domain-containing protein 2B (Homo sapiens, UniProt Q9ULI0); experiment: Binding affinity to human partial length ATAD2B (Q955 to R1082 residues) expressed in bacterial expression system by BROMOscan assay
T1 sequence (Q9ULI0 whole entry): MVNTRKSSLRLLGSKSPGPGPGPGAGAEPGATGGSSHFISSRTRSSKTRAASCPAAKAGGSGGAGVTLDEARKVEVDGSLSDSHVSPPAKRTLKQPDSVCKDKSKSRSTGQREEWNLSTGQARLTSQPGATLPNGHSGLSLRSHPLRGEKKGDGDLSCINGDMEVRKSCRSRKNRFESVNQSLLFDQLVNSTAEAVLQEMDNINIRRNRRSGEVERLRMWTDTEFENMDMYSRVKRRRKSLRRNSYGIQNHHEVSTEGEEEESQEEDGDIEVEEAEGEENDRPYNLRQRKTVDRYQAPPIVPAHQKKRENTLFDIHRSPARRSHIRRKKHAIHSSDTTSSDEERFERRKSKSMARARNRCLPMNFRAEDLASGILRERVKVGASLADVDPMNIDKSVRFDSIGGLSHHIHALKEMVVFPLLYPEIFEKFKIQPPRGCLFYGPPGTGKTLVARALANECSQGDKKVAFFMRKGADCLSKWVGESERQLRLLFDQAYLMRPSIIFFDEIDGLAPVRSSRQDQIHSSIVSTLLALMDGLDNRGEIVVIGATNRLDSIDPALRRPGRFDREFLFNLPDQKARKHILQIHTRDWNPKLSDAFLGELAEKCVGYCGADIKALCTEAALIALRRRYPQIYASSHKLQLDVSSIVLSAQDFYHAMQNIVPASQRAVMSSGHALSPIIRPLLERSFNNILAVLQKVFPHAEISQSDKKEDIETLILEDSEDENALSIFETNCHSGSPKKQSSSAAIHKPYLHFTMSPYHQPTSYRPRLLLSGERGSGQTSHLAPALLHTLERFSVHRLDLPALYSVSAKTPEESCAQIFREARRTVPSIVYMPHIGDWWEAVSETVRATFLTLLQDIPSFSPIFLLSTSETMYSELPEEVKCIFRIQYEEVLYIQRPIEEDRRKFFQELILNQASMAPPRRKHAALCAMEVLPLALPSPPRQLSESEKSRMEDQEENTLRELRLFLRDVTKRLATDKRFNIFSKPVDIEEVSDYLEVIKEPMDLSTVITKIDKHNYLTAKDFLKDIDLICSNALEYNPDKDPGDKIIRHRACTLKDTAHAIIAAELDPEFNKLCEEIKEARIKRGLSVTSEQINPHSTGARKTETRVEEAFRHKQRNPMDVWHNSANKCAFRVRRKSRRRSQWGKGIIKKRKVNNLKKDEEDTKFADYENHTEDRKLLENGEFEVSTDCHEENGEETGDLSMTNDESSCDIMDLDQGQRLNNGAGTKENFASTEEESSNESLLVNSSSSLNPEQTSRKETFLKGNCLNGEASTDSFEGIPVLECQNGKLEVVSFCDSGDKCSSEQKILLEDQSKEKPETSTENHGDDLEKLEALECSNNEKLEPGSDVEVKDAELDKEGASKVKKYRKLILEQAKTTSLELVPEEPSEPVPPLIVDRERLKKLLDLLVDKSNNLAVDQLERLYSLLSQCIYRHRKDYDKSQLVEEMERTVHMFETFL

[12] = molecular target: Bromodomain-containing protein 2 (Homo sapiens, UniProt P25440); experiment: Binding affinity to human partial length BRD2 bromodomain 1/2 isoform 1 (K71 to D455 residues) by BROMOscan assay
Sequence of Bromodomain-containing protein 2 (P25440 whole entry, the tested form may be a part, canonical isoform): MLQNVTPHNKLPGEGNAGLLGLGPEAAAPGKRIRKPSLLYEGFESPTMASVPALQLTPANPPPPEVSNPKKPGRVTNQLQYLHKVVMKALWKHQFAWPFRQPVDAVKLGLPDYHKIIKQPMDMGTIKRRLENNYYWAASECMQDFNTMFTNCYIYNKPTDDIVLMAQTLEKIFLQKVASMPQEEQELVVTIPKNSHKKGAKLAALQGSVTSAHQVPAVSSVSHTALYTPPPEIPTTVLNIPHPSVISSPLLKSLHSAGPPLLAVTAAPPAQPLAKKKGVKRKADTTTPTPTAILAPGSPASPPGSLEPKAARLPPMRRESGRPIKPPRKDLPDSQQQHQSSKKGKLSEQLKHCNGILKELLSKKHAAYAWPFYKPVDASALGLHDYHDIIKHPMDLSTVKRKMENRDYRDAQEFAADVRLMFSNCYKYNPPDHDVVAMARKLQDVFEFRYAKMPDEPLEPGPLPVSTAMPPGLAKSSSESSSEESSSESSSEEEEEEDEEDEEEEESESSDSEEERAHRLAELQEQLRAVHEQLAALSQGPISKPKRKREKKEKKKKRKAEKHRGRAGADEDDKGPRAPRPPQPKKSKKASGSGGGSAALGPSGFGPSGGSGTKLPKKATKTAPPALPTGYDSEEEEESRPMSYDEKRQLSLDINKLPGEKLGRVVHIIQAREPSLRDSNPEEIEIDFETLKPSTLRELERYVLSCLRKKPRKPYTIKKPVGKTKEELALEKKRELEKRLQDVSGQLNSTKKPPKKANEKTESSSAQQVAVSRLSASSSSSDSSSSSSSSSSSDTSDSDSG

[13] = molecular target: T2, Ephrin type-A receptor 1 (Homo sapiens) (UniProt P21709); experiment: Inhibition of EphA1 (unknown origin) at 1 uM relative to control
T2 sequence (whole entry): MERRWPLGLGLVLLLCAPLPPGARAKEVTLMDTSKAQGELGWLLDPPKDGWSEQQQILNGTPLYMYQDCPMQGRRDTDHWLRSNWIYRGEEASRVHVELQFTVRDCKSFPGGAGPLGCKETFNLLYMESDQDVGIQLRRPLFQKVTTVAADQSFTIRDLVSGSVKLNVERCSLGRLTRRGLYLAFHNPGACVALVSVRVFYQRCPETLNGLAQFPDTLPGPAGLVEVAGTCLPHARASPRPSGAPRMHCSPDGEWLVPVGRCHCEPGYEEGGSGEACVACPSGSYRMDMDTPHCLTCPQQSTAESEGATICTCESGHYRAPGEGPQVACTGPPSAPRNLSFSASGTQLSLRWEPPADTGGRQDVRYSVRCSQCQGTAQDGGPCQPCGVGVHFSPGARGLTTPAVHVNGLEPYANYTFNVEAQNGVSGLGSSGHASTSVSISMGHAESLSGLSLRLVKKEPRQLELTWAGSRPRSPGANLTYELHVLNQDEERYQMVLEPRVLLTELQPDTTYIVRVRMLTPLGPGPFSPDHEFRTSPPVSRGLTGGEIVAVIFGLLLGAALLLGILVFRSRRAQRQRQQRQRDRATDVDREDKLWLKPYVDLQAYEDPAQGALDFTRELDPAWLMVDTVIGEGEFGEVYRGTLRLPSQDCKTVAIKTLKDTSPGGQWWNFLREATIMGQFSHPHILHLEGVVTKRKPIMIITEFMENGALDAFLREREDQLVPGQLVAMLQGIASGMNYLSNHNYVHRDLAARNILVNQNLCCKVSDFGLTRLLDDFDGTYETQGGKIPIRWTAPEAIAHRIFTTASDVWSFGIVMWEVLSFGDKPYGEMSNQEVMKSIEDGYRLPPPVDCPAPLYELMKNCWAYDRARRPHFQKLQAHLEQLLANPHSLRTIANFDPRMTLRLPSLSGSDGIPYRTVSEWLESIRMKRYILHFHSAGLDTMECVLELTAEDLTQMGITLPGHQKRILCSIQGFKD

[14] = molecular target: Dual specificity mitogen-activated protein kinase kinase 1 (Homo sapiens) (UniProt Q02750); experiment: Inhibition of MEK1 (unknown origin) at 1 uM relative to control
Sequence of Dual specificity mitogen-activated protein kinase kinase 1 (Homo sapiens) (Q02750 whole entry): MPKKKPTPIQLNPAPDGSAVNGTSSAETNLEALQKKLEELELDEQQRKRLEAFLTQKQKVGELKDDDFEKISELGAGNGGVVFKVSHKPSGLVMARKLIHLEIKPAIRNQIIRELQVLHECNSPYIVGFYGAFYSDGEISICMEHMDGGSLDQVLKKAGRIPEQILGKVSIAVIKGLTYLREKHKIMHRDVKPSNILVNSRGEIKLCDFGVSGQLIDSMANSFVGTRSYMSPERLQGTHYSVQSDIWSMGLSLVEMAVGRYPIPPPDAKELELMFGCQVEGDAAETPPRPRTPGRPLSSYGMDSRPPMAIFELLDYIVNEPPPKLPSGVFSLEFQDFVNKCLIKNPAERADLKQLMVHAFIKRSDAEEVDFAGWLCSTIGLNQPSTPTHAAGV

**Q.** With `C/C=C/Cn1cc(-c2cc(OC)c(C(=O)N3CCOCC3)cc2OC)c2cc(C)[nH]c2c1=O` as the compound, how does the IC50 [1] read?
**A.** Its IC50 is 2 µM.

**Q.** What about the IC50 [2] of the same compound?
**A.** Its IC50 is 2 µM.

**Q.** What about the IC50 [3] of the same compound?
**A.** The IC50 was 2 µM.

**Q.** And the IC50 [4]?
**A.** Its IC50 is 2 µM.

**Q.** And the IC50 [5]?
**A.** The IC50 was 2 µM.

**Q.** And the IC50 [6]?
**A.** Its IC50 is 2 µM.

**Q.** What about the IC50 [7] of the same compound?
**A.** Its IC50 is 1.77 µM.

**Q.** What about the IC50 [8] of the same compound?
**A.** The IC50 was 2 µM.

**Q.** What about the IC50 [9] of the same compound?
**A.** The IC50 was 2 µM.

**Q.** And the IC50 [10]?
**A.** Its IC50 is 2 µM.

**Q.** What about the Kd [11] of the same compound?
**A.** The Kd was over 10 µM.

**Q.** What about the Kd [12] of the same compound?
**A.** Its Kd is over 10 µM.

**Q.** What about the inhibition [13] of the same compound?
**A.** The inhibition was 4%.

**Q.** And the inhibition [14]?
**A.** Its inhibition is 4%.

**Q.** For `C/C=C/Cn1cc(-c2ccc(C(C)(C)O)cc2OC)c2cc[nH]c2c1=O`, which IC50 [1] is on record?
**A.** The IC50 was 20 µM.

**Q.** What about the IC50 [2] of the same compound?
**A.** The IC50 was 20 µM.

**Q.** What about the IC50 [3] of the same compound?
**A.** Its IC50 is 20 µM.

**Q.** And the IC50 [4]?
**A.** The IC50 was 20 µM.

**Q.** What about the IC50 [5] of the same compound?
**A.** Its IC50 is 20 µM.

**Q.** What about the IC50 [6] of the same compound?
**A.** Its IC50 is 20 µM.

**Q.** And the IC50 [7]?
**A.** The IC50 was 20 µM.

**Q.** And the IC50 [8]?
**A.** Its IC50 is 20 µM.

**Q.** What about the IC50 [9] of the same compound?
**A.** The IC50 was 20 µM.

**Q.** And the IC50 [10]?
**A.** Its IC50 is 20 µM.

**Q.** What about the Kd [11] of the same compound?
**A.** Its Kd is over 10 µM.

**Q.** And the Kd [12]?
**A.** The Kd was 2.8 µM.

**Q.** And the inhibition [13]?
**A.** Its inhibition is 4%.

**Q.** And the inhibition [14]?
**A.** The inhibition was 1%.

**Q.** What does the source list for `C/C=C/Cn1cc(-c2ccc(C(=O)N3CCOCC3)cc2)c2cc[nH]c2c1=O`?
**A.** IC50 [1]: 10.8 µM; IC50 [2]: 20 µM; IC50 [3]: 20 µM; IC50 [4]: 20 µM; IC50 [5]: 20 µM; IC50 [6]: 20 µM; IC50 [7]: 20 µM; IC50 [8]: 20 µM; IC50 [9]: 20 µM; IC50 [10]: 20 µM; Kd [11]: > 10 µM; Kd [12]: 2.3 µM; inhibition [13]: 0.8%; inhibition [14]: 3%

**Q.** Which Kd [11] does the source give for `C/C=C/Cn1cc(-c2cc(OC)c(C(C)(C)O)cc2OC)c2cc(C)[nH]c2c1=O` here?
**A.** Its Kd is over 10 µM.

**Q.** And the Kd [12]?
**A.** Its Kd is 1.7 µM.
